Patent US20110065632A1, “PHARMACEUTICAL COMPOSITIONS OF SOMATOSTATIN-DOPAMINE CONJUGATES” (priority 2008, published 2011)

How the values were obtained:
[1] = biological target: T1, hsst2 (Homo sapiens, UniProt P30874); test: Somatostatin receptor radioligand binding assay, hsst2; conditions: CHO-K1 membranes, [125I]MK-678; read-out: hsst2 Ki
T1 construct: expressed in transfected cells
Method in brief: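 Membranes from CHO-K1 cells stably expressing human SSTR2, in 10 mM Tris-HCl, incubated 90 min at 25 °C with 0.05 nM [125I]MK-678. Bound ligand collected by filtration on PEI-soaked GF/C filters; nonspecific binding defined with 1000 nM MK-678.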

[2] = biological target: T2, hsst3 (Homo sapiens, UniProt P32745); test: Somatostatin receptor radioligand binding assay, hsst3
T2 construct: expressed in transfected cells
T2 sequence (P32745 whole entry): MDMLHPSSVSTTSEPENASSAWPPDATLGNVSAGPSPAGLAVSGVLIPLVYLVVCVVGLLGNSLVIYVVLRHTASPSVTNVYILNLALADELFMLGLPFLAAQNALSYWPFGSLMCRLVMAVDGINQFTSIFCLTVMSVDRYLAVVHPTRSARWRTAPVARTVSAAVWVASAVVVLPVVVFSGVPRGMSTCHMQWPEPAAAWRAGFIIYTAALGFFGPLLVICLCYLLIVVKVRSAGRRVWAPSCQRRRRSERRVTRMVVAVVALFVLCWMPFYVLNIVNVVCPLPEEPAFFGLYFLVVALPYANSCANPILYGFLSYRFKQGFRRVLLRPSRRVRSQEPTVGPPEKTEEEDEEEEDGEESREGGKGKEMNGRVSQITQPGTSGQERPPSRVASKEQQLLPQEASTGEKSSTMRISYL
Method in brief: (§1)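 Membranes from CHO-K1 cells stably transfected with each human SSTR subtype, incubated 90 min at 25 °C with 0.05 nM [125I-Tyr11]SS-14 in 50 mM HEPES pH 7.4 with BSA, MgCl2 and protease inhibitors; filtration read-out. Nonspecific binding with 1000 nM SS-14; Ki values reported.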

[3] = biological target: hDA2; test: Dopamine-2 receptor radioligand binding assay; parameters: species or system human; conditions: [3H]spiperone
[4] = biological target: T3, hsst1 (Homo sapiens, UniProt P30872); test: Somatostatin receptor radioligand binding assay, hsst1
T3 construct: expressed in transfected cells
T3 sequence (P30872 whole entry): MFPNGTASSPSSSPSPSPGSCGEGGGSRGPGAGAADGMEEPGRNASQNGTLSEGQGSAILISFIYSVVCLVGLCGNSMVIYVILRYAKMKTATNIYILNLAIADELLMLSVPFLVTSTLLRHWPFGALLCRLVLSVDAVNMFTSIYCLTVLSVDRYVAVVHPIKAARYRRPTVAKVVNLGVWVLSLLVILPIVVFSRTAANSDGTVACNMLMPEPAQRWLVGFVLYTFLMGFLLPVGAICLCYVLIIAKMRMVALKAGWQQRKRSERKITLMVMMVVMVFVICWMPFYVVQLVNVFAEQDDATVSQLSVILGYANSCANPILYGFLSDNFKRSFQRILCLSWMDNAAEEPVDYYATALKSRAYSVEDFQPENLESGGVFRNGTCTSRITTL
Method in brief: as §1

[5] = biological target: T4, hsst5 (Homo sapiens, UniProt P35346); test: Somatostatin receptor radioligand binding assay, hsst5; conditions: hsst5 Ki, CHO-K1 membranes, [125I-Tyr11]SS-14
T4 construct: expressed in transfected cells
T4 sequence (P35346 whole entry): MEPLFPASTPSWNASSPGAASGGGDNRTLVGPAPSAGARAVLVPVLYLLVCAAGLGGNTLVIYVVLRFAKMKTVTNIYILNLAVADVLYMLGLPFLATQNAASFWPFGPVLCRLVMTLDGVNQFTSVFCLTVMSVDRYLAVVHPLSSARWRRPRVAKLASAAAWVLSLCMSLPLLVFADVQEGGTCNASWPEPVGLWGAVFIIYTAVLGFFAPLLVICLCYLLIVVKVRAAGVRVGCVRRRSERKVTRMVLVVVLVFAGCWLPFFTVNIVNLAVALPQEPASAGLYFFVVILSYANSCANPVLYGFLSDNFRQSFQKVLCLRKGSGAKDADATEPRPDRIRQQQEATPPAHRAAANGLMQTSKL
Method in brief: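 Membranes from CHO-K1 cells stably expressing hsst5, incubated 90 min at 25 °C with 0.05 nM [125I-Tyr11]SS-14 in 50 mM HEPES pH 7.4 with BSA, MgCl2 and protease inhibitors. Bound ligand collected by filtration. Non-specific binding defined with 1000 nM SS-14.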

[6] = biological target: T5, hUTII (Homo sapiens, UniProt Q9UKP6); test: hUTII inhibition constant; type: binding; conditions: read-out: hUTII Ki
T5 sequence (Q9UKP6 1-389): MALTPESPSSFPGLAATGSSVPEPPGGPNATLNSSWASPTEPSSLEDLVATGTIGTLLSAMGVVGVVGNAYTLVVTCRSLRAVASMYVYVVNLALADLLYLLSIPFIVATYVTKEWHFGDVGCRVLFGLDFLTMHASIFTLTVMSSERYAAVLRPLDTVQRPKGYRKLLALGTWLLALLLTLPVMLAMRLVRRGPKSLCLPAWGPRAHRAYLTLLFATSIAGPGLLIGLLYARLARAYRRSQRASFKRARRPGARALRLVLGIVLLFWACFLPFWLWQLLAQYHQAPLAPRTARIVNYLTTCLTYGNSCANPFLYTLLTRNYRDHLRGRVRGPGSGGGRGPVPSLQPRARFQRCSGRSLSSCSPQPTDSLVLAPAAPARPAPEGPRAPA
Procedure: Using the discussed assays, the inhibition constants (Ki) for the five human somatostatin receptors (hSSTR1-hSSTR5) and the dopamine-2 receptor (hUTII and hDA2) were measured for the exemplified somatostatin-dopamine conjugates, as follows: […]

[7] = biological target: T6, sst2-D2 (Homo sapiens, UniProt P14416+P30874); test: cAMP Responsive Element-Luciferase reporter gene assay, sst2-D2 co-transfected HEK-293 cells; type: cell-based; conditions: read-out: IC50 value of cAMP inhibition
T6 construct: expressed in transfected cells; host or cells: HEK-293, transient co-transfection
T6 sequence (P30874 whole entry): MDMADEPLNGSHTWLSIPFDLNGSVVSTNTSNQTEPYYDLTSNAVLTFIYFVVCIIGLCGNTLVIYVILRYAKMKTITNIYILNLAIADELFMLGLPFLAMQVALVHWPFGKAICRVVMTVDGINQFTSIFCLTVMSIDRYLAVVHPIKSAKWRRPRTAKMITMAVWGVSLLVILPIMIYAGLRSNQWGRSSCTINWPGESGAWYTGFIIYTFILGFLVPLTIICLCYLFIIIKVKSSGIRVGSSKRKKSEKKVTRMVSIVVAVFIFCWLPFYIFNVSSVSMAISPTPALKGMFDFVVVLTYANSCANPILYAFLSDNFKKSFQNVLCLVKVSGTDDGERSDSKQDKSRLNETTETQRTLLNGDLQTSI
T6 sequence (P14416 whole entry): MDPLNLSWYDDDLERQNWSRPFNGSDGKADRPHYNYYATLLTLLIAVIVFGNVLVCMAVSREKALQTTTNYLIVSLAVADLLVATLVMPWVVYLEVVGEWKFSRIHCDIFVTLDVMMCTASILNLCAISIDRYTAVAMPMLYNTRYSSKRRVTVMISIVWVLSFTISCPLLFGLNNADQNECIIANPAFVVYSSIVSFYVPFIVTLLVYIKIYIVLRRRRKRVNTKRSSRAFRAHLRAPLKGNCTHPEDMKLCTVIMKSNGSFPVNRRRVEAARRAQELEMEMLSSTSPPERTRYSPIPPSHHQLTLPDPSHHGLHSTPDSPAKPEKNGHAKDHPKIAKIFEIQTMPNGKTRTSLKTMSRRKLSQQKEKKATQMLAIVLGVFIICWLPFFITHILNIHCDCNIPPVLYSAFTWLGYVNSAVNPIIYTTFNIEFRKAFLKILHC
Procedure: (§2) A cAMP Responsive Element-Luciferase reporter gene assay in HEK-293 cells was used in this assay, wherein said HEK-293 cells were transiently transfected with D2 and/or sst2 cDNA. […] In sst2-monotransfected cells, the IC50 value of cAMP inhibition of Example 1 was 0.04 nM.

[8] = biological target: T7, sst2 (Homo sapiens, UniProt P30874); test: cAMP Responsive Element-Luciferase reporter gene assay, sst2-monotransfected HEK-293 cells; type: cell-based; conditions: read-out: IC50 value of cAMP inhibition
T7 construct: expressed in transfected cells; host or cells: HEK-293, transient
T7 sequence (P30874 whole entry): as the sequence (P30874 whole entry) above
Procedure: as §2

[9] = biological target: T8, D2 (Homo sapiens, UniProt P14416); test: cAMP Responsive Element-Luciferase reporter gene assay, D2-monotransfected HEK-293 cells; type: cell-based; conditions: read-out: IC50 value of cAMP inhibition
T8 construct: expressed in transfected cells; host or cells: HEK-293, transient
T8 sequence (P14416 whole entry): as the sequence (P14416 whole entry) above
Procedure: as §2

T1 sequence (P30874 whole entry): as the sequence (P30874 whole entry) above

Work on `CCCN1C[C@H](CSCC(=O)NCCCC[C@@H](NC(=O)CSC[C@@H]2C[C@@H]3c4cccc5[nH]cc(c45)C[C@H]3N(CCC)C2)C(=O)N[C@H]2CSSC[C@@H](C(=O)N[C@H](C(N)=O)[C@@H](C)O)NC(=O)[C@H](CC)NC(=O)[C@H](CCCCN)NC(=O)[C@@H](Cc3c[nH]c4ccccc34)NC(=O)[C@H](Cc3ccc(O)cc3)NC2=O)C[C@@H]2c3cccc4[nH]cc(c34)C[C@H]21` [Example 1, Dop2-DLys(Dop2)-cyclo[Cys-Tyr-DTrp-Lys-Abu-Cys]-Thr-NH2] yielded a Ki [1] of 0.03 nM, a Ki [2] of 160 nM and a Ki [3] of 15.8 nM. It also gave a Ki [4] of 843 nM, a Ki [5] of 41.5 nM and a Ki [6] of 509 nM. For the same compound, the IC50 [7] was 0.02 nM, the IC50 [8] was 0.04 nM and the IC50 [9] was 0.02 nM.
